Legend:
SW480 = tested on: SW480; parameters: method as in PMID 32645482; settings: cited from earlier work
GES1 = tested on: GES1; parameters: method as in PMID 27771599; settings: cited from earlier work
MGC-803 cell line = tested on: MGC-803 cell line; parameters: method as in PMID 27771599; settings: cited from earlier work
NCI/ADR-RES = assay type: cell-based; settings: Homo sapiens, one dose 10^-5 M, 48 h
SR = assay type: cell-based; settings: Homo sapiens, one dose 10^-5 M, 48 h
MDA-MB-435 = assay type: cell-based; settings: Homo sapiens, one dose 10^-5 M, 48 h, read-out: % growth
UO-31 = assay type: cell-based; settings: Homo sapiens, UO-31, 48 h, one dose 10^-5 M, 48 h
HL-60(TB) = assay type: cell-based; settings: Homo sapiens, one dose 10^-5 M, 48 h
NCI-H522 = assay type: cell-based; settings: Homo sapiens, one dose 10^-5 M, 48 h
M14 = assay type: cell-based; settings: Homo sapiens, one dose 10^-5 M, 48 h
SF-295 = assay type: cell-based; settings: Homo sapiens, one dose 10^-5 M, 48 h
SW-620 = assay type: cell-based; settings: Homo sapiens, one dose 10^-5 M, 48 h
PC-3 = assay type: cell-based; settings: Homo sapiens, one dose 10^-5 M, 48 h
ACHN = assay type: cell-based; settings: Homo sapiens, one dose 10^-5 M, 48 h
OVCAR-5 = assay type: cell-based; settings: Homo sapiens, one dose 10^-5 M, 48 h
MOLT-4 = assay type: cell-based; settings: Homo sapiens, one dose 10^-5 M, 48 h, read-out: % growth
HT29 = assay type: cell-based; settings: Homo sapiens, HT-29, one dose 10^-5 M, 48 h
SK-MEL-28 = assay type: cell-based; settings: Homo sapiens, one dose 10^-5 M, 48 h
IGROV1 = assay type: cell-based; settings: Homo sapiens, IGROV-1, one dose 10^-5 M, 48 h, read-out: % growth
MDA-MB-231/ATCC = assay type: cell-based; settings: Homo sapiens, one dose 10^-5 M, 48 h
HOP-62 = assay type: cell-based; settings: Homo sapiens, one dose 10^-5 M, 48 h
BT-549 = assay type: cell-based; settings: Homo sapiens, one dose 10^-5 M, 48 h
TK-10 = assay type: cell-based; settings: Homo sapiens, one dose 10^-5 M, 48 h
A498 = assay type: cell-based; settings: Homo sapiens, one dose 10^-5 M, 48 h
COLO 205 = assay type: cell-based; settings: Homo sapiens, one dose 10^-5 M, 48 h
HCT-15 = assay type: cell-based; settings: Homo sapiens, one dose 10^-5 M, 48 h, read-out: % growth
T-47D = assay type: cell-based; settings: Homo sapiens, T47D, one dose 10^-5 M, 48 h, read-out: % growth
[1] = tested on: full NCI 60 cell lines panel
NCI-H226 = assay type: cell-based; settings: Homo sapiens, one dose 10^-5 M, 48 h
786-0 = assay type: cell-based; settings: Homo sapiens, one dose 10^-5 M, 48 h
NCI-H23 = assay type: cell-based; settings: Homo sapiens, one dose 10^-5 M, 48 h, read-out: % growth
OVCAR-8 = assay type: cell-based; settings: Homo sapiens, one dose 10^-5 M, 48 h
LOX IMVI = assay type: cell-based; settings: Homo sapiens, one dose 10^-5 M, 48 h, read-out: % growth
SK-MEL-5 = assay type: cell-based; settings: Homo sapiens, one dose 10^-5 M, 48 h, read-out: % growth
U251 = assay type: cell-based; settings: Homo sapiens, U-251, one dose 10^-5 M, 48 h
MDA-MB-468 = assay type: cell-based; settings: Homo sapiens, one dose 10^-5 M, 48 h
NCI-H460 = assay type: cell-based; settings: Homo sapiens, one dose 10^-5 M, 48 h, read-out: % growth
SK-MEL-2 = assay type: cell-based; settings: Homo sapiens, one dose 10^-5 M, 48 h
RXF 393 = assay type: cell-based; settings: Homo sapiens, RXF 393, 48 h, one dose 10^-5 M, 48 h, read-out: % growth
UACC-62 = assay type: cell-based; settings: Homo sapiens, one dose 10^-5 M, 48 h
HCT-116 = assay type: cell-based; settings: Homo sapiens, one dose 10^-5 M, 48 h, read-out: % growth
KM12 = assay type: cell-based; settings: Homo sapiens, one dose 10^-5 M, 48 h
HOP-92 = assay type: cell-based; settings: Homo sapiens, one dose 10^-5 M, 48 h
SK-OV-3 = assay type: cell-based; settings: Homo sapiens, one dose 10^-5 M, 48 h
MCF7 = assay type: cell-based; settings: Homo sapiens, one dose 10^-5 M, 48 h, read-out: % growth
SF-268 = assay type: cell-based; settings: Homo sapiens, one dose 10^-5 M, 48 h, read-out: % growth
SN12C = assay type: cell-based, human; settings: Homo sapiens, one dose 10^-5 M, 48 h
HS 578T = assay type: cell-based; settings: Homo sapiens; one dose 10^-5 M, 48 h; HS 578T; read-out: % growth
UACC-257 = assay type: cell-based; settings: Homo sapiens, one dose 10^-5 M, 48 h
SNB-19 = assay type: cell-based; settings: Homo sapiens, one dose 10^-5 M, 48 h, read-out: % growth
CAKI-1 = assay type: cell-based; settings: Homo sapiens, CAKI-1, 48 h, one dose 10^-5 M, 48 h
SF-539 = assay type: cell-based; settings: Homo sapiens, one dose 10^-5 M, 48 h
A549/ATCC = assay type: cell-based; settings: Homo sapiens, one dose 10^-5 M, 48 h
RPMI-8226 = assay type: cell-based; settings: Homo sapiens, one dose 10^-5 M, 48 h
OVCAR-3 = assay type: cell-based; settings: Homo sapiens, one dose 10^-5 M, 48 h
EKVX = assay type: cell-based; settings: Homo sapiens, one dose 10^-5 M, 48 h
CCRF-CEM = assay type: cell-based; settings: Homo sapiens, one dose 10^-5 M, 48 h
K-562 = assay type: cell-based; settings: Homo sapiens, K562, one dose 10^-5 M, 48 h
MALME-3M = assay type: cell-based; settings: Homo sapiens, one dose 10^-5 M, 48 h
DU-145 = assay type: cell-based; settings: Homo sapiens, one dose 10^-5 M, 48 h
HCC-2998 = assay type: cell-based; settings: Homo sapiens, one dose 10^-5 M, 48 h
OVCAR-4 = assay type: cell-based; settings: Homo sapiens, one dose 10^-5 M, 48 h
[2] = MTT cytotoxicity on normal cells; assay type: cell-based; settings: human, WI-38 cells (normal lung fibroblasts), WI-38 normal cells, mean ± SD of three experiments, read-out: IC50 (cytotoxic activity)
Method: The American Type Culture Collection provided WI-38 cells (normal lung cells). The cells were grown in DMEM with 10% heat-inactivated FBS (Hyclone), 10 µg/ml of insulin (Sigma), and 1% penicillin-streptomycin. The remaining chemicals and reagents were all from Sigma or Invitrogen. The MTT test was used to evaluate cytotoxicity, as described previously. Graph pad Prism software (San Diego, CA) was used to estimate the 50% inhibitory concentration (IC50) from dose response curve graphic plots for each conc.

NC1=NC(NC(=O)Nc2ccc(Cl)c(C(F)(F)F)c2)=CC(c2ccccc2)N1 (stereo not shown) [XIX]
IC50 (SW480): 11.1 µM

C/C(=N\Nc1nc(Sc2ccccc2)nc2c1nnn2-c1ccccc1)c1ccccc1O [XXII]
IC50 (GES1): 56.2 µM
IC50 (MGC-803 cell line): 0.87 µM

N=C(NN=Cc1ccc(Br)cc1)c1c(N)nc(S)nc1-c1ccc(Cl)cc1Cl [Compound 4q, 4-amino-N'-[(4-bromophenyl)methylene]-6–(2,4-dichlorophenyl)-2-mercapto pyrimidine-5-carboximidohydrazide]
cell growth percent at 10 µM (NCI/ADR-RES): 114%
percent cell growth at 10 µM (SR): 86.7%
activity at 10 µM (MDA-MB-435): 104%
% cell growth at 10 µM (UO-31): 94.2%
% growth at 10 µM (HL-60(TB)): 96.5%
% growth at 10 µM (NCI-H522): 101%
% growth at 10 µM (M14): 101%
% cell growth at 10 µM (SF-295): 96.6%
% growth at 10 µM (SW-620): 108%
percent cell growth at 10 µM (PC-3): 102%
% growth at 10 µM (ACHN): 108%
percent cell growth at 10 µM (OVCAR-5): 119%
activity at 10 µM (MOLT-4): 91.4%
% growth at 10 µM (HT29): 112%
% cell growth at 10 µM (SK-MEL-28): 106%
activity at 10 µM (IGROV1): 105%
% growth at 10 µM (MDA-MB-231/ATCC): 98.5%
% growth at 10 µM (HOP-62): 101%
% cell growth at 10 µM (BT-549): 97.7%
% cell growth at 10 µM (TK-10): 148%
% growth at 10 µM (A498): 129%
% growth at 10 µM (COLO 205): 114%
activity at 10 µM (HCT-15): 108%
activity at 10 µM (T-47D): 110%
activity at 10 µM ([1]; Homo sapiens, 60 cell, 48 h, read-out: Mean % growth): 104%
activity on all 60 cancer cell lines tested (in words) ([1]; one dose): weak activity
% growth at 10 µM (NCI-H226): 107%
% growth at 10 µM (786-0): 93.8%
activity at 10 µM (NCI-H23): 102%
% growth of cells at 10 µM (OVCAR-8): 114%
activity at 10 µM (LOX IMVI): 109%
activity at 10 µM (SK-MEL-5): 104%
% growth at 10 µM (U251): 107%
percent cell growth at 10 µM (MDA-MB-468): 113%
activity at 10 µM (NCI-H460): 110%
% growth at 10 µM (SK-MEL-2): 109%
activity at 10 µM (RXF 393): 101%
% growth at 10 µM (UACC-62): 96.4%
activity at 10 µM (HCT-116): 96.2%
% growth at 10 µM (KM12): 100%
% growth at 10 µM (HOP-92): 102%
% growth at 10 µM (SK-OV-3): 103%
activity at 10 µM (MCF7): 90.9%
activity at 10 µM (SF-268): 105%
% growth at 10 µM (SN12C): 103%
activity at 10 µM (HS 578T): 118%
percent cell growth at 10 µM (UACC-257): 102%
activity at 10 µM (SNB-19): 99.2%
% growth at 10 µM (CAKI-1): 86.9%
% growth at 10 µM (SF-539): 102%
% growth at 10 µM (A549/ATCC): 98.8%
% growth at 10 µM (RPMI-8226): 98.8%
% growth at 10 µM (OVCAR-3): 104%
% cell growth at 10 µM (EKVX): 108%
% cell growth at 10 µM (CCRF-CEM): 96.8%
% growth at 10 µM (K-562): 92.2%
% growth at 10 µM (MALME-3M): 91.2%
% growth at 10 µM (DU-145): 108%
% growth at 10 µM (HCC-2998): 114%
% growth at 10 µM (OVCAR-4): 109%

C#Cc1cccc(Nc2ncnc3cc(OCCOC)c(OCCOC)cc23)c1 [erlotinib]
IC50 [2]: 22.8 ± 0.65 µM
